# Data reported in ChEMBL document CHEMBL2331193, “Structure-based fragment screening is demonstrated to be a practical lead discovery method for a representative G-protein-coupled receptor” (J Med Chem, 2013).
# Biological target: Beta-1 adrenergic receptor (Homo sapiens, UniProt P08588)
# Test: Binding affinity to beta1 adrenergic receptor (unknown origin)
# Sequence of Beta-1 adrenergic receptor (P08588 whole entry): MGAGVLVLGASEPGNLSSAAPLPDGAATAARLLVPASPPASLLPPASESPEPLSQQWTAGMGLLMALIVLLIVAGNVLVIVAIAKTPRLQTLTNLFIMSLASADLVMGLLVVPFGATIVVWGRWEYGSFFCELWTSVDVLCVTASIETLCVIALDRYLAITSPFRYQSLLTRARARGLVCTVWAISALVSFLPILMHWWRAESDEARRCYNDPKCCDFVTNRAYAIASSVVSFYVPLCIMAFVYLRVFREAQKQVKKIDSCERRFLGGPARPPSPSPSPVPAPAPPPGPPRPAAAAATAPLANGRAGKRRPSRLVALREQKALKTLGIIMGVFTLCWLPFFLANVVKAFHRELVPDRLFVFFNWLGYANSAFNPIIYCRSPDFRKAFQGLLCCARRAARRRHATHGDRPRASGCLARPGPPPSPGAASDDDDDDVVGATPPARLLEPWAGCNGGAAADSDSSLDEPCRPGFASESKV
compound,measurement,value
Cc1cc(N2CCNCC2)nc2ccccc12,Ki,220 nM
